Test results: patent US5633003A, “Use of intratracheally administered hyaluronic acid to ameliorate emphysema” (priority 1994, dated 1997)
“Also recorded” adds a separate entry of the source.

Key:
[1] = system: elastase-induced emphysema; test: Hyaluronidase-elastase model, mean linear intercept measurement of air-space size; format: in vivo, Syrian hamsters
Description: To determine the effects of hyaluronidase on elastase-induced emphysema, Syrian hamsters received intratracheal instillments of bovine testicular hyaluronidase and, 24 hours later, porcine pancreatic elastase. Controls received: 1) saline followed by elastase, 2) elastase followed by hyaluronidase, and 3) saline followed by saline. Air-space enlargement was measured one week later, using the mean linear intercept method (8). Changes in lung elastin content were determined at 24 and 48 hours by quantifying elastin-specific desmosine and isodesmosine cross-links.
Female Syrian hamsters, weighing approximately 100 gms each, were anesthetized by intramuscular injection of ketamine hydrochloride (10 mg in 0.1 ml). The animals were then placed on a rodent surgical table (Harvard Bioscience, South Natick, Mass.) and restrained with elastic bands. The neck fur was shaved with a scalpel and a 2-cm vertical incision was made through the skin and subcutaneous fat. The underlying muscle was then cut to expose the trachea. A 26-gauge needle mounted on a 1-ml syringe was placed inside the tracheal lumen and 900 unite of highly purified bovine testicular hyaluronidase (Sigma Chemical Co., St. Louis, Mo.), dissolved in 0.3 ml normal saline solution, were delivered to the lungs in small increments. Twenty-four hours later, 20 units of porcine pancreatic elastase (Elastin Products, Pacific, Mo.), dissolved in 0.2 ml saline solution, were instilled by the same method. The incision was then closed with several sutures.

[2] = system: lung air-space; details: hyaluronidase alone; cited from earlier work
[3] = system: 3H-elastin; details: incubation with 3H-elastin; cited from earlier work
[4] = system: elastase-induced emphysema; test: Hyaluronic acid-elastase model, mean linear intercept measurement of air-space size; format: in vivo, Syrian hamsters; details: 1 week
Description: (§1) To test the possibility that addition of hyaluronic acid may inhibit air-space enlargement, Syrian hamsters were instilled with elastase intratracheally, then immediately given 1 mg of bovine tracheal hyaluronic acid by the same route. Controls received elastase followed by saline alone. Changes in air-space size were evaluated one week later, using the mean linear intercept method (8). To determine whether hyaluronic acid has elastase inhibitory capacity, it was incubated with pancreatic elastase in the presence of ^3 H-elastin. Controls contained elastase and ^3 H-elastin alone.
Following intratracheal administration of 20 units of pancreatic elastase (see above procedure), hamsters immediately received, by the same route, 1 mg of bovine tracheal hyaluronic acid (Sigma Chemical Co., St. Louis, Mo.), dissolved in 0.2 ml of saline solution.

[5] = system: pancreatic elastase; test: Measurement of elastase inhibitory capacity of hyaluronic acid (release of radioactivity from 3H-elastin); format: biochemical, porcine; details: 1, 10, 100 μg hyaluronic acid, 1 μg elastase, pH 8.0, 37° C., 22 hours, preincubated with elastase or 3H-elastin
Description: as §1
Various amounts of hyaluronic acid (1,10,100 μg) were incubated with pancreatic elastase (1 μg) and ^3 H-elastin in 0.2M Tris buffer, pH 8.0, at 37° C. for 22 hours (7,10). Hyaluronic acid was preincubated with either elastase or ^3 H-elastin for 10 minutes prior to the start of the assay. This was done to allow for the possible binding of one component to another. Following incubation, the samples were filtered, combined with scintillation fluid, and measured for radioactivity. The results were adjusted for nonspecific release of radioactivity and expressed as net counts per minute.

[6] = system: lungs; details: hamster, in vivo
Description: One week after completion of the enzyme instillments, the hamsters were sacrificed by intraperitoneal injection of chloral hydrate. Their lungs were then fixed in-situ by inserting a catheter into the tracheas and allowing 10% neutral-buffered formalin to inflate the tissues at a pressure of 20 cm H2 O. Two hours later, the catheter was removed and the trachea was tied off to minimize deflation. both the lungs and heart were removed from the chest as a single block and additionally fixed in 10% formalin for several days. The lungs were then dissected free of extrapulmonary structures, sectioned randomly, and entirely submitted for histological processing.

For hyaluronidase, the “mean linear intercept value” ([1]; elastase followed by hyaluronidase (reversed order), 1 week) was 95.3 um, the “mean linear intercept value” ([1]; hyaluronidase 900 units intratracheally 24 hours prior to elastase, 1 week) was 128 um and the “effect of hyaluronidase on air-space enlargement” value ([1]; order of enzyme administration reversed (elastase then hyaluronidase)) was “abolished this effect; also recorded: extinguished”. The elastase-induced air-space enlargement ([1]; pre-treatment with hyaluronidase, then elastase, 1 week) was “significantly increased elastase-induced air-space enlargement; also recorded: markedly enhanced”, the air-space dilation [2] was “does not cause significant air-space dilation” and the “elastase activity of the hyaluronidase preparation” value [3] was “no elastase activity”.

For hyaluronic acid, the “mean linear intercept (air-space size)” value ([4]; 1 mg hyaluronic acid intratracheally immediately after 20 units elastase, control elastase then saline 122 um) was 82 um, the air-space enlargement ([4]; hyaluronic acid intratracheally immediately after elastase, vs elastase followed by saline) was “significantly reduced the amount of air-space enlargement; also recorded: marked decrease in air-space enlargement; also recorded: marked reduction in air-space enlargement” and the “pancreatic elastase activity (release of radioactivity from 3H-elastin)” value [5] was “no elastase inhibitory capacity; also recorded: did not reduce ^3 H-elastin breakdown, but instead caused a marked increase in the release of radioactivity; also recorded: does not prevent elastin from being degraded by elastase in-vitro”. The “pancreatic elastase activity (release of radioactivity from 3H-elastin)” value ([5]; listed as Hyaluronic acid) was “enhanced, rather than inhibited, pancreatic elastase activity” and the “histological changes of the lungs” value [6] was “No specific changes”.

In the case of “elastase: porcine pancreatic elastase (Elastin Products), used to induce emphysema”, the “mean linear intercept (air-space size)” value ([4]; elastase followed immediately by saline (model control)) is reported as 122 um and the “mean linear intercept value” ([1]; saline followed 24 hours later by elastase 20 units (model control), 1 week) is reported as 100 um.
